ChEMBL document CHEMBL3046217, “Synthesis, antimicrobial, antioxidant, anti-inflammatory, and analgesic activities of some new 3-(2-thienyl)pyrazole-based heterocycles” (Med Chem Res, 2012)
Converted amounts (≈) assume the structure as drawn. The source made the active and inactive calls. No cut-off for these calls is given here.

Legend:
[1] = system: Mycolicibacterium phlei; test: Antimicrobial activity against Mycobacterium phlei after 24 hr by agar diffusion method; type: functional
[2] = system: Saccharomyces cerevisiae; test: Antimicrobial activity against Saccharomyces cerevisiae after 24 hr by agar diffusion method; type: functional; settings: for MIC: Saccharomyces cerevisiae, 24 h
[3] = system: Enterococcus faecalis; test: Antimicrobial activity against Enterococcus faecalis ATCC 29212 after 24 hr by agar diffusion method; type: functional; settings: for MIC: Enterococcus faecalis, ATCC 29212, 24 h
[4] = system: Pseudomonas aeruginosa; test: Antimicrobial activity against Pseudomonas aeruginosa ATCC 29953 after 24 hr by agar diffusion method; type: functional; settings: for MIC: Pseudomonas aeruginosa, ATCC 29953, 24 h
[5] = system: Candida albicans; test: Antimicrobial activity against Candida albicans NRRLY-477 after 24 hr by agar diffusion method; type: functional; settings: for MIC: Candida albicans, NRRLY-477, 24 h
[6] = system: Bacillus spizizenii; test: Antimicrobial activity against Bacillus subtilis subsp. spizizenii ATCC 6633 after 24 hr by agar diffusion method; type: functional; settings: for MIC: Bacillus spizizenii, ATCC 6633, 24 h
[7] = system: Salmonella typhi; test: Antimicrobial activity against Salmonella enterica subsp. enterica serovar Typhi after 24 hr by agar diffusion method; type: functional; settings: for MIC: Salmonella enterica, 24 h
[8] = system: Staphylococcus aureus; test: Antimicrobial activity against Staphylococcus aureus ATCC 29213 after 24 hr by agar diffusion method; type: functional; settings: for MIC: Staphylococcus aureus, ATCC 29213, 24 h
[9] = system: Aspergillus niger; test: Antimicrobial activity against Aspergillus niger after 24 hr by agar diffusion method; type: functional, organism-based
[10] = system: Mus musculus; test: Analgesic activity in Mus musculus Swiss albino (mouse) assessed as inhibition of acetic acid-induced writhing at 20 mg/kg, po administered 30 min before acetic acid challenge measured for 20 min after acetic acid injection […]; type: functional, organism-based; parameters: dose 20 mg/kg
[11] = system: Escherichia coli; settings: ATCC 25922
Description: Antimicrobial activity against Escherichia coli ATCC 25922 after 24 hr by agar diffusion method

[12] = system: Enterobacter cloacae; test: Antimicrobial activity against Enterobacter cloacae ATCC 3047 after 24 hr by agar diffusion method; type: functional; settings: for MIC: Enterobacter cloacae, ATCC 3047, 24 h
[13] = system: Radical scavenging activity; test: Antioxidant activity assessed as as DPPH radical scavenging activity by spectrophotometry; type: functional
[14] = system: Klebsiella pneumoniae; test: Antimicrobial activity against Klebsiella pneumoniae ATCC 13883 after 24 hr by agar diffusion method; type: functional; settings: for MIC: Klebsiella pneumoniae, ATCC 13883, 24 h
[15] = system: Rattus norvegicus; test: Anti-inflammatory activity in Rattus norvegicus Sprague-Dawley (rat) assessed as inhibition of carrageenan-induced paw edema at 20 mg/kg, po administered 1 hr before carrageenan challenge and measured hourly for 4-hr post drug administration by mercury plethysmometer; type: functional, organism-based; parameters: dose 20 mg/kg

Row | SMILES | inhibition zone (IZ) [1] | inhibition zone (IZ) [2] | inhibition zone (IZ) [3] | inhibition zone (IZ) [4] | inhibition zone (IZ) [5] | inhibition zone (IZ) [6] | MIC [6] [µg/mL] | inhibition zone (IZ) [7] | inhibition zone (IZ) [8] | MIC [8] [µg/mL] | Activity [9] | inhibition [10] | IZ [11] | MIC [3] [µg/mL] | inhibition zone (IZ) [12] | MIC [12] [µg/mL] | IC50 [13] [µg/mL] | inhibition zone (IZ) [14] | inhibition [15] | MIC [2] [µg/mL] | also measured
1 | O=C(O)c1cn(C2CC2)c2cc(N3CCNCC3)c(F)cc2c1=O [CIPROFLOXACIN] | 22 mm | inactive | 23 mm | 24 mm | inactive | 22 mm | 10.4 (≈ 31.4 µM) | 21 mm | – | – | – | – | – | – | – | – | – | – | – | – | MIC [7]: 41.6 µg/mL (≈ 126 µM)
2 | N/C(=N/N=C\c1cn(-c2ccccc2)nc1-c1cccs1)SCC(=O)Nc1cccs1 | inactive | inactive | 21 mm | 15 mm | 15 mm | 23 mm | 83.3 (≈ 179 µM) | inactive | 28 mm | 20.8 (≈ 44.6 µM) | inactive | Active | inactive | 83.3 (≈ 179 µM) | 28 mm | 20.8 (≈ 44.6 µM) | 1000 (≈ 2140 µM) | 18 mm | Active | – | MIC [14]: 167 µg/mL (≈ 357 µM)
3 | Cc1nc(N/N=C\c2cn(-c3ccccc3)nc2-c2cccs2)sc1/N=N/c1ccc(F)cc1 | inactive | 31 mm | 16 mm | 19 mm | 17 mm | 22 mm | 167 (≈ 342 µM) | inactive | 21 mm | 41.8 (≈ 85.7 µM) | inactive | Active | inactive | – | 26 mm | 41.6 (≈ 85.3 µM) | 25 (≈ 51.3 µM) | 18 mm | Active | 20.8 (≈ 42.7 µM) | MIC [4]: 333 µg/mL (≈ 684 µM); MIC [5]: 167 µg/mL (≈ 342 µM); MIC [14]: 167 µg/mL (≈ 342 µM)
4 | Clc1ccc(C2=NNC(c3cn(-c4ccccc4)nc3-c3cccs3)C2)cc1 (centres undefined) | inactive | 31 mm | 21 mm | 26 mm | 17 mm | 17 mm | 333 (≈ 823 µM) | inactive | 20 mm | 333 (≈ 823 µM) | inactive | Active | inactive | 41.6 (≈ 103 µM) | 21 mm | 83.3 (≈ 206 µM) | 750 (≈ 1850 µM) | inactive | Active | 20.8 (≈ 51.4 µM) | MIC [4]: 167 µg/mL (≈ 411 µM); MIC [5]: 167 µg/mL (≈ 411 µM)
5 | O=C(/C=C/c1cn(-c2ccccc2)nc1-c1cccs1)c1ccc(Cl)cc1 | 15 mm | 29 mm | 21 mm | 19 mm | 18 mm | 21 mm | 167 (≈ 426 µM) | 24 mm | 21 mm | 167 (≈ 426 µM) | inactive | Active | inactive | 83.3 (≈ 213 µM) | 24 mm | 41.6 (≈ 106 µM) | 1000 (≈ 2560 µM) | 18 mm | Active | 20.8 (≈ 53.2 µM) | MIC [4]: 333 µg/mL (≈ 853 µM); MIC [5]: 167 µg/mL (≈ 426 µM); MIC [14]: 167 µg/mL (≈ 426 µM); MIC [7]: 83.3 µg/mL (≈ 213 µM)
6 | C(=N/Nc1nc(-c2cc3ccccc3o2)cs1)/c1cn(-c2ccccc2)nc1-c1cccs1 | inactive | inactive | 15 mm | 14 mm | inactive | 23 mm | 167 (≈ 356 µM) | inactive | 21 mm | 167 (≈ 356 µM) | inactive | Active | inactive | – | 15 mm | – | 25 (≈ 53.5 µM) | 15 mm | Active | – | –
7 | Cc1ccc(NC(=S)N2N=C(c3ccc(Cl)cc3)CC2c2cn(-c3ccccc3)nc2-c2cccs2)cc1 (centres undefined) | 13 mm | inactive | 21 mm | inactive | 15 mm | 21 mm | 167 (≈ 301 µM) | inactive | 15 mm | – | inactive | Active | inactive | 167 (≈ 301 µM) | 16 mm | – | 500 (≈ 902 µM) | 21 mm | Active | – | MIC [14]: 333 µg/mL (≈ 601 µM)
8 | C(=N/Nc1nc2nc3ccccc3nc2s1)/c1cn(-c2ccccc2)nc1-c1cccs1 | 15 mm | 28 mm | 21 mm | 28 mm | inactive | 26 mm | 41.6 (≈ 91.7 µM) | inactive | 21 mm | 333 (≈ 735 µM) | inactive | Active | inactive | 167 (≈ 367 µM) | 18 mm | 333 (≈ 735 µM) | 500 (≈ 1100 µM) | inactive | Active | 41.6 (≈ 91.7 µM) | MIC [4]: 41.6 µg/mL (≈ 91.7 µM)
9 | O=C(O)Cc1ccccc1Nc1c(Cl)cccc1Cl | – | – | – | – | – | – | – | – | – | – | – | Active | – | – | – | – | – | – | Active | – | –
10 | O=c1oc2ccccc2cc1-c1csc(N/N=C\c2cn(-c3ccccc3)nc2-c2cccs2)n1 | inactive | inactive | 22 mm | inactive | inactive | 21 mm | 167 (≈ 336 µM) | inactive | 11 mm | – | inactive | Active | inactive | 83.3 (≈ 168 µM) | 14 mm | – | 25 (≈ 50.4 µM) | 14 mm | Active | – | –
11 | O=C1CS/C(=N\N=C/c2cn(-c3ccccc3)nc2-c2cccs2)N1 | inactive | 29 mm | 15 mm | inactive | inactive | 19 mm | 167 (≈ 453 µM) | inactive | 29 mm | 20.8 (≈ 56.6 µM) | inactive | Active | inactive | – | 13 mm | – | 500 (≈ 1360 µM) | inactive | Active | 41.6 (≈ 113 µM) | –
12 | CC(=O)N1CCN(c2ccc(OCC3COC(Cn4ccnc4)(c4ccc(Cl)cc4Cl)O3)cc2)CC1 (racemic) [KETOCONAZOLE] | inactive | 23 mm | inactive | inactive | 22 mm | inactive | – | inactive | inactive | – | – | – | inactive | – | inactive | – | – | inactive | – | 5.2 (≈ 9.78 µM) | MIC [5]: 10.4 µg/mL (≈ 19.6 µM)
13 | NC(=S)N/N=C\c1cn(-c2ccccc2)nc1-c1cccs1 | 16 mm | 30 mm | 13 mm | 15 mm | 16 mm | 29 mm | 20.8 (≈ 63.5 µM) | 28 mm | 21 mm | 83.3 (≈ 254 µM) | inactive | Active | inactive | – | 26 mm | 20.8 (≈ 63.5 µM) | 500 (≈ 1530 µM) | 28 mm | Active | 20.8 (≈ 63.5 µM) | MIC [14]: 20.8 µg/mL (≈ 63.5 µM); MIC [7]: 20.8 µg/mL (≈ 63.5 µM)
